# In US6914045B2, “Glycopeptide antibiotics” (Wyeth Holdings Corporation, priority 2001, dated 2005):
# Assays:
# Assay in all cases: in vitro antibacterial evaluation, MIC by broth dilution
# Assay type in all cases: cell-based
# Streptococcus sp. = details: broth dilution, 18 hours at 35° C.
# Outline: (§1)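 Broth dilution per NCCLS standard M7-A2 in Muller-Hinton II […], with an inoculum of 5×10^5 CFU/mL and antibiotic spanning 64-0.06 μg/mL. The MIC is the lowest concentration that inhibits growth of the organism.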
# Staphylococcus sp. = details: broth dilution, 18 hours at 35° C.
# Outline: as §1
# Enterococcus sp. = details: broth dilution, 18 hours at 35° C.
# Outline: as §1
# Escherichia coli = details: 18 hours at 35° C.
# Outline: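 Broth dilution in Muller-Hinton II medium per NCCLS standard M7-A2, with an inoculum of 5×10^5 CFU/mL and antibiotic tested over 64-0.06 μg/mL. MIC was taken as the lowest concentration inhibiting visible growth.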
smiles,measurement,setting,value
"CC(c1ccccc1)C1NC(=O)CNC(=O)C(CO)NC(=O)C(C(O)C2CNC(=N)N2C2OC(CO)C(O)C(O)C2O)NC(=O)C(C(O)C2CNC(=N)N2)NC(=O)C(Cc2ccc(OC3OC(COC(=O)C(c4ccccc4)c4ccccc4)C(OC4OC(CO)C(O)C(O)C4O)C(O)C3O)cc2)NC1=O (stereo not drawn) [Example 96b, Cyclo[glycyl-β-methylphenylalanyl-O-[6-O-(diphenylacetyl)-4-O-hexopyranosylhexopyranosyl]tyrosyl-3-(2-iminoimidazolidin-4-yl)seryl-3-(3-hexopyranosyl-2-iminoimidazolidin-4-yl)serylseryl]]",MIC Streptococcus agalactiae (GC 4564),Streptococcus sp.; Streptococcus agalactiae (GC 4564),0.25 µg/mL
same,MIC Streptococcus pneumoniae (GC 4565),Streptococcus sp.; Streptococcus pneumoniae (GC 4565),<0.12 µg/mL
same,MIC Streptococcus pyogenes (ID-3187),Streptococcus sp.; Streptococcus pyogenes (ID-3187),0.25 µg/mL
same,MIC Streptococcus agalactiae (GC 4564),Streptococcus sp.,0.25 µg/mL
same,MIC Streptococcus pneumoniae (GC 4565),Streptococcus sp.,<0.12 µg/mL
same,MIC Streptococcus pyogenes (ID-3187),Streptococcus sp.,0.25 µg/mL
same,MIC Coagulase Negative Staphylococcus (GC 4547),Staphylococcus sp.,1 µg/mL
same,MIC Coagulase Negative Staphylococcus (GC 4548),Staphylococcus sp.,0.5 µg/mL
same,MIC Coagulase Negative Staphylococcus (GC 4549),Staphylococcus sp.,0.5 µg/mL
same,MIC Coagulase Negative Staphylococcus (GC 4551),Staphylococcus sp.,2 µg/mL
same,MIC Coagulase Negative Staphylococcus (ID-3941),Staphylococcus sp.,0.5 µg/mL
same,MIC Staphylococcus aureus-SMITH (GC 4543),Staphylococcus sp.,2 µg/mL
same,MIC Staphylococcus haemolyticus (GC 4546),Staphylococcus sp.,1 µg/mL
same,MIC Staphylococcus haemolyticus (GC 4546),Staphylococcus sp.; strain GC 4546,1 µg/mL
same,MIC Coagulase Negative Staphylococcus (GC 4547),Staphylococcus sp.; strain GC 4547,1 µg/mL
same,MIC Coagulase Negative Staphylococcus (GC 4548),Staphylococcus sp.; strain GC 4548,0.5 µg/mL
same,MIC Coagulase Negative Staphylococcus (GC 4549),Staphylococcus sp.; strain GC 4549,0.5 µg/mL
same,MIC Coagulase Negative Staphylococcus (GC 4551),Staphylococcus sp.; strain GC 4551,2 µg/mL
same,MIC Coagulase Negative Staphylococcus (ID-3941),Staphylococcus sp.; strain ID-3941,0.5 µg/mL
same,MIC Staphylococcus aureus-SMITH (GC 4543),Staphylococcus sp.; strain SMITH GC 4543,2 µg/mL
same,MIC Staphylococcus aureus (ATCC 29213),Staphylococcus sp.; strain ATCC 29213,1 µg/mL
same,MIC Staphylococcus aureus (GC 1131),Staphylococcus sp.; strain GC 1131,2 µg/mL
same,MIC Staphylococcus aureus (GC 4541),Staphylococcus sp.; strain GC 4541,1 µg/mL
same,MIC Staphylococcus aureus (GC 4542),Staphylococcus sp.; strain GC 4542,2 µg/mL
same,MIC Staphylococcus aureus (GC 4544),Staphylococcus sp.; strain GC 4544,2 µg/mL
same,MIC Staphylococcus aureus (GC 4545),Staphylococcus sp.; strain GC 4545,1 µg/mL
same,MIC Enterococcus avium (GC 4558),Enterococcus sp.; Enterococcus avium (GC 4558),4 µg/mL
same,MIC Enterococcus faecalis (ATCC 29212),Enterococcus sp.; Enterococcus faecalis (ATCC 29212),8 µg/mL
same,MIC Enterococcus faecalis (GC 2242),Enterococcus sp.; Enterococcus faecalis (GC 2242),4 µg/mL
same,MIC Enterococcus faecalis (GC 4552),Enterococcus sp.; Enterococcus faecalis (GC 4552),8 µg/mL
same,MIC Enterococcus faecalis (GC 4553),Enterococcus sp.; Enterococcus faecalis (GC 4553),8 µg/mL
same,MIC Enterococcus faecalis (GC 4554),Enterococcus sp.; Enterococcus faecalis (GC 4554),8 µg/mL
same,MIC Enterococcus faecium (GC 2243),Enterococcus sp.; Enterococcus faecium (GC 2243),8 µg/mL
same,MIC Enterococcus faecium (GC 4556),Enterococcus sp.; Enterococcus faecium (GC 4556),8 µg/mL
same,MIC Enterococcus faecium (GC 4557),Enterococcus sp.; Enterococcus faecium (GC 4557),1 µg/mL
same,MIC Enterococcus avium (GC 4558),Enterococcus sp.,4 µg/mL
same,MIC Enterococcus faecalis (ATCC 29212),Enterococcus sp.,8 µg/mL
same,MIC Enterococcus faecalis (GC 2242),Enterococcus sp.,4 µg/mL
same,MIC Enterococcus faecalis (GC 4552),Enterococcus sp.,8 µg/mL
same,MIC Enterococcus faecalis (GC 4553),Enterococcus sp.,8 µg/mL
same,MIC Enterococcus faecalis (GC 4554),Enterococcus sp.,8 µg/mL
same,MIC Enterococcus faecium (GC 2243),Enterococcus sp.,8 µg/mL
same,MIC Enterococcus faecium (GC 4556),Enterococcus sp.,8 µg/mL
same,MIC Enterococcus faecium (GC 4557),Enterococcus sp.,1 µg/mL
same,MIC Escherichia coli (ATCC 25922),Escherichia coli,>128 µg/mL
